Assay results reported in patent publication US6544971B1, “Method of increasing alertness by administration of a vomeropherin, and vomeropherin-emitting alarm devices” (Pherin Pharmaceuticals, Inc., priority 2000, dated 2003).

Columns and labels:
Assay type in all cases: in vivo
[1] = system: Human Subjects; test: Morning multiple-choice questionnaire and analog scale (sleep latency, duration, quality, status at waking)
Experimental: (§1) In the morning, all subjects completed a multiple-choice questionnaire regarding the following variables: sleep latency after last entry, estimated time sleeping, number of awakenings, and quality of sleep. General status at waking time was determined by marking on a 9 item analog scale inventory. In addition, all subjects were administered cognitive and motor performance tests identical to those received before bedtime.

[2] = system: Human Subjects; test: Sleep study by polysomnography (PSG) after VNO stimulation, randomized single-blind placebo-controlled; settings: for Overall effect on sleep and arousal: conclusion from PSG and self-reports
Experimental: Three methods were used to assess sleep: 1) sleep study, 2) quantitative electroencephalography, and 3) psychometric tests. The study was carried out using a randomized, single-blind, placebo-controlled experimental design.
Screening was performed several days prior to the study session via clinical interviews and examination. Additionally, Hamilton A and D, and Covy tests were administered to determine concomitant anxiety or affective disorders. A thorough questionnaire regarding sleep habits and sleep pathologies was also administered to each subject. Criteria for inclusion in the study included subjects with a score of 12 or less on the Covy test and a score of 8 or less on the Hamilton A and Hamilton D tests, and absence of any medical or psychiatric conditions. Ten physically and mentally healthy young male adult subjects were selected for the study. All of them Were normal sleepers (i.e., they reported no difficulty in falling or remaining asleep at night, slept between 6 and 8.5 hours per night, and were alert during the daytime).
On the day of the study, they were instructed to refrain from napping, to avoid consuming alcohol or caffeine containing beverages, and to maintain a uniform daily level of activity. The ten subjects were divided into two groups of five, with the test compound being administered to one group and the other acting as a control.
The test compound was administered to the VNO using a manual vomeronasal applicator (MVA). This applicator comprises an air supply, delivering a 1 ml pulse of air; a valve system passing that pulse of air either through a chamber containing 30 mg of USP cotton that has been previously soaked with 1 ml of a 1 mg/ml solution of the test compound, estra-1,3,5(10),16-tetraen-3-yl acetate, in ethanol and allowed to dry overnight, or bypassing that chamber; a one-way flow valve; and a nozzle capable of being positioned in a nostril to provide direct administration to the lumen of the VNO. With a 1 ml air pulse, the MVA delivers 200 pg of the test compound to the VNO.
During the study, subjects spent one night in the sleep laboratory and underwent conventional polysomnography (PSG) only, during the first hour. The criteria for this short recording was based on previous findings showing that single dose VNO stimulation with the vomeropherins induced effects within one hour after stimulation. Before starting the recordings, each subject was questioned regarding distressing or extenuating events during that day that could contribute to sleep disruption. Times of last meal and physical exercise (if applicable) were also recorded. In order to determine whether the compound would affect daytime activities, or anterograde memory, judgment and motor skills were also evaluated both before going to sleep and in the morning. For this purpose, subjects were administered a maze test, a digit-symbol substitution test, a right and left manual coordination test (dot test), and a number repetition test as described in a previous publication (Monti, J. M., 1989, Slow Wave Sleep in Health and Disease. In: Waukier A., Dugovic C. and Radulovacki M. “Slow Wave Sleep.” New York, Raven Press. pp. […]).
Immediately prior to “lights out”, subjects were asked to lie in a supine position. The MVA was positioned in the right nostril, with its nozzle directed toward the right VNO opening. Later, the MVA was positioned in the left nostril for stimulation of the left VNO. […]

[3] = system: Human Subjects; test: Cognitive and motor performance tests before sleep and in the morning (maze, digit-symbol substitution, dot test, number repetition); settings: night versus morning tests
Source text: During the study, subjects spent one night in the sleep laboratory and underwent conventional polysomnography (PSG) only, during the first hour. The criteria for this short recording was based on previous findings showing that single dose VNO stimulation with the vomeropherins induced effects within one hour after stimulation. Before starting the recordings, each subject was questioned regarding distressing or extenuating events during that day that could contribute to sleep disruption. Times of last meal and physical exercise (if applicable) were also recorded. In order to determine whether the compound would affect daytime activities, or anterograde memory, judgment and motor skills were also evaluated both before going to sleep and in the morning. […]
as §1, with “In addition, all subjects were administered cognitive and motor performance tests identical to those received before bedtime.” left out

[4] = system: Human Subjects; test: Subjective in-session self-evaluation at half-hour intervals (questionnaire and 3 item analog sleepiness scale); settings: for Self-Perception of Sleepiness, score on sleepiness scale inventory: scale 0 to 10, higher numbers more sleepiness
Experimental: Immediately prior to “lights out”, subjects were asked to lie in a supine position. The MVA was positioned in the right nostril, with its nozzle directed toward the right VNO opening. Later, the MVA was positioned in the left nostril for stimulation of the left VNO. Two pulses of air or the test compound or placebo were administered to each VNO. The same procedure was repeated 30 minutes later, at which times the investigator would enter the room and wake the subject if they were asleep, so that the total dose of the vomeropherin being administered to each subject was 800 pg.
At each 30 minute sleep interruption, prior to the test compound application, each subject was given a short questionnaire to record their perception of whether they were asleep, estimated time spent awake, and number of awakenings. In addition, sleepiness was measured by a 3 item analog scale inventory (scored from 0 to 10, higher numbers indicating more sleepiness) that included: a) readiness to get back to sleep; b) degree of anxiety and c) self rated level of sleepiness. […] Recordings began at 10:00 p.m. and lasted until 6:00 a.m. of the following day. Frontal, parietal and occipital electroencephalograms (EEG), electrooculograms, and electromyograms were recorded during the first hour. These recordings were coded and scored blind for non-rapid eye movement sleep latency from “lights out” to the appearance of the first minute of Stage 1 sleep, total wake time, wake time after sleep onset, and total sleep time. Sleep stages were assigned according to the criteria of Rechtschaffen and Kales (1968). All variables were scored separately for each 30-minute interval. Number of awakenings was tallied for the entire hour of recording.

[5] = morning questionnaire, latency after last entry, 5 subjects per group
[6] = morning questionnaire, 5 subjects per group

Compound: CC(=O)Oc1ccc2c(c1)CC[C@@H]1[C@@H]2CC[C@]2(C)C=CC[C@@H]12 [Test Compound, estra-1,3,5(10),16-tetraen-3-yl acetate]
- Sleep quality (disturbed or undisturbed) ([1]; classified by subjects in the morning): one subject in the test group defined their sleep as “disturbed”
- Sleep Latencies <30 Minutes, number of subjects [1, 5]: 0 n
- Sleep Latencies >30 minutes, number of subjects [1, 5]: 5 n
- Sleep Duration 4-6 hours, number of subjects [1, 6]: 5
- Sleep Duration 7-8 hours, number of subjects [1, 6]: 0
- Reported sleep latency after VNO stimulation ([1]; morning quiz, control group shorter than 30 minutes): > 30 min
- Condition at morning waking (index and visual analog scale) ([1]; versus placebo): did not show any difference
- Overall effect on sleep and arousal [2]: possible psychostimulant effect
- Overall effect on sleep and arousal ([2]; listed as estra-1,3,5(10),16-tetraen-3-yl acetate): primary arousing effect
- Sleep Onset Latency (SOL), Mean ([2]; healthy young male adults, 5 per group, test compound to VNO by MVA, total 800 pg, first hour PSG, control group 16): 21 min
- Wake Time after Sleep Onset, Mean ([2]; healthy young male adults, 5 per group, test compound to VNO by MVA, total 800 pg, first hour PSG, control group 17.7): 16.3 min
- Total Sleep Time (TST), Mean ([2]; healthy young male adults, 5 per group, test compound to VNO by MVA, total 800 pg, first hour PSG, control group 26.0): 14.3 min
- Change in scores for anterograde memory, judgment or motor dexterity [3]: Neither the control nor the test group revealed any changes in scores
- Self-Perception of Sleepiness, score on sleepiness scale inventory ([4]; First entry (beginning study), placebo 7.5): 6.0
- Self-Perception of Sleepiness, score on sleepiness scale inventory ([4]; Second entry (60 min. int), after dosing, placebo 8.9): 3.2
- Self-reported number of awakenings ([4]; self-evaluation at half-hour intervals, control group none to more than three): three or more
- Effect on subject's self-perception of sleep ([4]; self-reports compared with PSG data): does not impair a subject's self-perception of sleep
